Source: ChEMBL document CHEMBL5252586, “2-[(2-Amino-6-methylpyrimidin-4-yl)sulfanyl]-N-arylacetamides: Discovery of a new class of anti-tubercular agents and prospects for their further structural modification” (Bioorg Med Chem Lett, 2023)
≈ marks a conversion by molar mass, not a printed value. Calls of active or inactive are those of the source. No cut-off for these calls is given here.

Columns and labels:
[1] = Solubility of compound; assay type: physicochemical
[2] = test system: Mycobacterium tuberculosis; test: Antimycobacterial activity against Mycobacterium tuberculosis H37Rv assessed as reduction in bacterial growth; assay type: functional
[3] = test system: Mycobacterium tuberculosis; test: Antimycobacterial activity against Mycobacterium tuberculosis H37Rv assessed as reduction in bacterial growth at 100 microg/ml; assay type: functional, organism-based; settings: dose 100.0 µg/ml

For `Cc1cc(=O)[nH]c(N)n1`, the solubility [1] was “Soluble”.

`Cc1cc(SCC(=O)Nc2ccc(C(C)C)cc2)nc(N)n1` gave an MIC [2] of 1.5 µg/mL (≈ 4.74 µM).

`Cc1cc(SCC(=O)Nc2cc(Cl)ccc2Cl)nc(N)n1` showed an MIC [2] of 1.5 µg/mL (≈ 4.37 µM).

Compound `NNC(=O)c1ccncc1` [ISONIAZID] has an MIC [2] of 0.1 µg/mL (≈ 0.729 µM).

`Cc1cc(SCC(=O)Nc2cccc(Cl)c2C)nc(N)n1` showed an MIC [2] of 100 µg/mL (≈ 310 µM).

In the case of `CC[C@@H](CO)NCCN[C@@H](CC)CO` [ETHAMBUTOL], the MIC [2] is reported as 5 µg/mL (≈ 24.5 µM).

Compound `Cc1cc(SCC(=O)Nc2ccc(F)cc2)nc(N)n1` has an MIC [2] of 100 µg/mL (≈ 342 µM).

With `Cc1ccc(NC(=O)CSc2cc(C)nc(N)n2)cc1` the Activity [3] was “inactive”.

With `Cc1cc(SCC(=O)Nc2cc(C(F)(F)F)ccc2Cl)nc(N)n1` the MIC [2] was 25 µg/mL (≈ 66.3 µM).

`CO[C@H]1/C=C/O[C@@]2(C)Oc3c(C)c(O)c4c(O)c(c(/C=N/N5CCN(C)CC5)c(O)c4c3C2=O)NC(=O)/C(C)=C\C=C\[C@H](C)[C@H](O)[C@@H](C)[C@@H](O)[C@@H](C)[C@H](OC(C)=O)[C@@H]1C` [RIFAMPIN] showed an MIC [2] of 0.5 µg/mL (≈ 0.608 µM).

With `Cc1cc(SCC(=O)Nc2ccccc2)nc(N)n1` the MIC [2] was 100 µg/mL (≈ 364 µM).

Work on `Cc1ccc(NC(=O)CSc2cc(C)nc(N)n2)c(C)c1` yielded an MIC [2] of 100 µg/mL (≈ 331 µM).
